Measured values from patent US9023789B2, “Amylin analogs and pharmaceutical compositions thereof” (Novo Nordisk A/S, priority 2012, dated 2015).
In brackets after ≈: the same amount, converted by molar mass. Like-named read-outs stand apart in the source and are kept apart here. Numbered stars: 1 amine (or outer) side, 2 acyl side, 3 side chain; on linkers, the order of the positions; unused ones are H or OH. Bridge positions count the residues as written; N and C are the ends. Side chains are listed from the residue outwards. Peptide text beside a SMILES is read from it. * marks the point of attachment. C20 diacid = O=C(O)CCCCCCCCCCCCCCCCCCC(=O)*; γGlu = O=C(O)[C@H](CCC(=O)[*:2])N[*:1]

What was measured:
rat calcitonin receptor = target: T1, rat calcitonin receptor (Rattus norvegicus, UniProt P32214); test: ASSAY (VIII) binding to the rat calcitonin receptor; conditions: Table 7, read-out: rCTR bind IC50
T1 construct: expressed in transfected cells; host or cells: BHK tk'ts 13 (transient, FuGENE 6), membranes
T1 sequence (P32214 25-479 isoform P32214-2 limits assumed): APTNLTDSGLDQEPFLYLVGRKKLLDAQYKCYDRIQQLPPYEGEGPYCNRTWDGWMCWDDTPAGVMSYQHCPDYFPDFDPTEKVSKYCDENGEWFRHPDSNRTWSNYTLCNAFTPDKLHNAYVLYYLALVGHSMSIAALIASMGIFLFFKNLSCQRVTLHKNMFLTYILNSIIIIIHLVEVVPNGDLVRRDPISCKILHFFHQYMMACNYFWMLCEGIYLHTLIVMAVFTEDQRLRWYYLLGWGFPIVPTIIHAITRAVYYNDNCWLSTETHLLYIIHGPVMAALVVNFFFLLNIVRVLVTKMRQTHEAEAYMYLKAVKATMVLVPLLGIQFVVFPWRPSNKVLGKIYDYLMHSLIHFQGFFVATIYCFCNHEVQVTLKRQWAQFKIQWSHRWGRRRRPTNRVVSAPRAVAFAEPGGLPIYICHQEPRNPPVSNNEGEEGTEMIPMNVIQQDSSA
How it was run: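 Receptor source: membranes from transiently transfected BHK tk′ts 13 cells expressing rat calcitonin receptor, collected roughly 48 hours after transfection.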

Sprague Dawley (SD) rats = test: ASSAY (I) efficacy testing on appetite (food intake) using an ad libitum fed rat model; type: in vivo; conditions: rat, 30 nmol/kg
How it was run: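 Individual food consumption was logged each hour up to 7 h and again at 24 h, occasionally 48 h, with Grubbs-test outliers removed. Each 200–250 g Sprague Dawley rat, free-feeding in its home cage under reversed lighting, received a single ip, po or sc dose of 0.01–3 mg/kg at lights-off, alongside a vehicle group.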

[1] = ASSAY (IV) determination of solubility; type: physicochemical
How it was run: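 UPLC read-out of polypeptide concentration after centrifugation. Samples: aqueous polypeptide stock ([…]) + 100 mM buffer 1:1, glycylglycine pH 3.0–5.0 or bistrispropane pH 6.0–8.0; 18 h, RT.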

[2] = bistrispropane buffer, pH 6.5, read-out: Solubility pH 6.5 Concentration
[3] = bistrispropane buffer, pH 7.5, read-out: Solubility pH 7.5 Concentration
[4] = bistrispropane buffer, pH 6.0, read-out: Solubility pH 6.0 Concentration
[5] = bistrispropane buffer, pH 7.0, read-out: Solubility pH 7.0 Concentration
[6] = bistrispropane buffer, pH 8.0, read-out: Solubility pH 8.0 Concentration
[7] = glycylglycine buffer, pH 3.0, read-out: Solubility pH 3.0 Concentration
[8] = glycylglycine buffer, pH 4.0, read-out: Solubility pH 4.0 Concentration
[9] = glycylglycine buffer, pH 5.0, read-out: Solubility pH 5.0 Concentration

Structure (SMILES)	IC50 (rat calcitonin receptor) [µM]	Food intake reduction 0-24 h 30 nmol/kg (%) (Sprague Dawley (SD) rats)	Food intake reduction 24-48 h 30 nmol/kg (%) (Sprague Dawley (SD) rats)	solubility at 18 h [1, 2] [µM]	solubility at 18 h [1, 3] [µM]	solubility at 18 h [1, 4] [µM]	solubility at 18 h [1, 5] [µM]	solubility at 18 h [1, 6] [µM]	solubility at 18 h [1, 7] [µM]	solubility at 18 h [1, 8] [µM]	solubility at 18 h [1, 9] [µM]
CC[C@H](C)[C@H](NC(=O)[C@H](C)NC(=O)CNC(=O)[C@H](Cc1ccccc1)NC(=O)[C@H](CC(N)=O)NC(=O)[C@@H]1CCCN1C(=O)[C@H](CO)NC(=O)[C@H](CO)NC(=O)[C@H](Cc1c[nH]cn1)NC(=O)[C@H](CCCNC(=N)N)NC(=O)[C@H](CC(C)C)NC(=O)[C@H](Cc1ccccc1)NC(=O)[C@H](Cc1c[nH]cn1)NC(=O)[C@H](C)NC(=O)[C@H](CC(C)C)NC(=O)[C@H](CCCNC(=N)N)NC(=O)[C@H](CCC(N)=O)NC(=O)[C@@H](NC(=O)[C@H](C)NC(=O)[C@@H]1CSSC[C@H](NC(=O)[C@@H](N)CCCCNC(=O)CC[C@H](NC(=O)CCCCCCCCCCCCCCCCCCC(=O)O)C(=O)O)C(=O)N[C@@H](CC(N)=O)C(=O)N[C@@H]([C@@H](C)O)C(=O)N[C@@H](C)C(=O)N[C@@H]([C@@H](C)O)C(=O)N1)[C@@H](C)O)C(=O)N1CCC[C@H]1C(=O)N[C@@H](CO)C(=O)N[C@@H](CO)C(=O)N[C@H](C(=O)N[C@@H](CC(N)=O)C(=O)N[C@H](C(=O)NCC(=O)N[C@@H](CCCNC(=N)N)C(=O)N[C@@H](CC(N)=O)C(=O)N[C@H](C(=O)N[C@@H](Cc1ccc(O)cc1)C(N)=O)[C@@H](C)O)C(C)C)[C@@H](C)O [Example 85] (H-K([γGlu-C20 diacid])CNTATCATQRLAHFLRHSSPNFGAIPSSTNVGRNTY-NH2; disulfide 2-7 (inferred); N-terminus assumed)	0.146	30	6	≥ 200	≥ 200	≥ 200	≥ 200	≥ 200	≥ 200	≥ 200	≥ 200
CC[C@H](C)[C@H](NC(=O)[C@H](C)NC(=O)CNC(=O)[C@H](Cc1ccccc1)NC(=O)[C@H](CC(N)=O)NC(=O)[C@@H]1CCCN1C(=O)[C@H](CO)NC(=O)[C@H](CO)NC(=O)[C@H](Cc1c[nH]cn1)NC(=O)[C@H](CCCNC(=N)N)NC(=O)[C@H](CC(C)C)NC(=O)[C@H](Cc1ccccc1)NC(=O)[C@H](CC(N)=O)NC(=O)[C@H](C)NC(=O)[C@H](CC(C)C)NC(=O)[C@H](CCCNC(=N)N)NC(=O)[C@H](CCC(N)=O)NC(=O)[C@@H](NC(=O)[C@H](C)NC(=O)[C@@H]1CSSC[C@H](NC(=O)[C@@H](N)CCCCNC(=O)CC[C@H](NC(=O)CC[C@H](NC(=O)CCCCCCCCCCCCCCCCCCC(=O)O)C(=O)O)C(=O)O)C(=O)N[C@@H](CC(N)=O)C(=O)N[C@@H]([C@@H](C)O)C(=O)N[C@@H](C)C(=O)N[C@@H]([C@@H](C)O)C(=O)N1)[C@@H](C)O)C(=O)N1CCC[C@H]1C(=O)N[C@@H](CO)C(=O)N[C@@H](CO)C(=O)N[C@H](C(=O)N[C@@H](CC(N)=O)C(=O)N[C@H](C(=O)NCC(=O)N[C@@H](Cc1c[nH]cn1)C(=O)N[C@@H](CC(N)=O)C(=O)N[C@H](C(=O)N[C@@H](Cc1ccc(O)cc1)C(N)=O)[C@@H](C)O)C(C)C)[C@@H](C)O [Example 86] (H-K([γGlu-γGlu-C20 diacid])CNTATCATQRLANFLRHSSPNFGAIPSSTNVGHNTY-NH2; disulfide 2-7)	0.352	48	26	≥ 200	157 (≈ 716 µg/mL)	≥ 200	≥ 200	≥ 200	≥ 200	≥ 200	≥ 200
CC[C@H](C)[C@H](NC(=O)[C@H](C)NC(=O)CNC(=O)[C@H](Cc1ccccc1)NC(=O)[C@H](CC(N)=O)NC(=O)[C@@H]1CCCN1C(=O)[C@H](CO)NC(=O)[C@H](CO)NC(=O)[C@H](Cc1c[nH]cn1)NC(=O)[C@H](CCCNC(=N)N)NC(=O)[C@H](CC(C)C)NC(=O)[C@H](Cc1ccccc1)NC(=O)[C@H](CCC(=O)O)NC(=O)[C@H](C)NC(=O)[C@H](CC(C)C)NC(=O)[C@H](CCCNC(=N)N)NC(=O)[C@H](CCC(N)=O)NC(=O)[C@@H](NC(=O)[C@H](C)NC(=O)[C@@H]1CSSC[C@H](NC(=O)[C@@H](N)CCCCNC(=O)CC[C@H](NC(=O)CC[C@H](NC(=O)CCCCCCCCCCCCCCCCCCC(=O)O)C(=O)O)C(=O)O)C(=O)N[C@@H](CC(N)=O)C(=O)N[C@@H]([C@@H](C)O)C(=O)N[C@@H](C)C(=O)N[C@@H]([C@@H](C)O)C(=O)N1)[C@@H](C)O)C(=O)N1CCC[C@H]1C(=O)N[C@@H](CO)C(=O)N[C@@H](CO)C(=O)N[C@H](C(=O)N[C@@H](CC(N)=O)C(=O)N[C@H](C(=O)NCC(=O)N[C@@H](Cc1c[nH]cn1)C(=O)N[C@@H](CC(N)=O)C(=O)N[C@H](C(=O)N[C@@H](Cc1ccc(O)cc1)C(N)=O)[C@@H](C)O)C(C)C)[C@@H](C)O [Example 87] (H-K([γGlu-γGlu-C20 diacid])CNTATCATQRLAEFLRHSSPNFGAIPSSTNVGHNTY-NH2; disulfide 2-7)	0.0945	29	20	144 (≈ 659 µg/mL)	≥ 200	156 (≈ 714 µg/mL)	146 (≈ 668 µg/mL)	≥ 200	≥ 200	≥ 200	≥ 200
CC[C@H](C)[C@H](NC(=O)[C@H](C)NC(=O)CNC(=O)[C@H](Cc1ccccc1)NC(=O)[C@H](CC(N)=O)NC(=O)[C@@H]1CCCN1C(=O)[C@H](CO)NC(=O)[C@H](CO)NC(=O)[C@H](Cc1c[nH]cn1)NC(=O)[C@H](CCCNC(=N)N)NC(=O)[C@H](CC(C)C)NC(=O)[C@H](Cc1ccccc1)NC(=O)[C@H](CCC(=O)O)NC(=O)[C@H](C)NC(=O)[C@H](CC(C)C)NC(=O)[C@H](CCCNC(=N)N)NC(=O)[C@H](CCC(N)=O)NC(=O)[C@@H](NC(=O)[C@H](C)NC(=O)[C@@H]1CSSC[C@H](NC(=O)[C@@H](N)CCCCNC(=O)CC[C@H](NC(=O)CC[C@H](NC(=O)CCCCCCCCCCCCCCCCCCC(=O)O)C(=O)O)C(=O)O)C(=O)N[C@@H](CC(N)=O)C(=O)N[C@@H]([C@@H](C)O)C(=O)N[C@@H](C)C(=O)N[C@@H]([C@@H](C)O)C(=O)N1)[C@@H](C)O)C(=O)N1CCC[C@H]1C(=O)N[C@@H](CO)C(=O)N[C@@H](CO)C(=O)N[C@H](C(=O)N[C@@H](CC(N)=O)C(=O)N[C@H](C(=O)NCC(=O)N[C@@H](CCCNC(=N)N)C(=O)N[C@@H](CC(N)=O)C(=O)N[C@H](C(=O)N[C@@H](Cc1ccc(O)cc1)C(N)=O)[C@@H](C)O)C(C)C)[C@@H](C)O [Example 88] (H-K([γGlu-γGlu-C20 diacid])CNTATCATQRLAEFLRHSSPNFGAIPSSTNVGRNTY-NH2; disulfide 2-7)	0.196	31	15	≥ 200	113 (≈ 519 µg/mL)	≥ 200	162 (≈ 744 µg/mL)	108 (≈ 496 µg/mL)	≥ 200	≥ 200	≥ 200
CC[C@H](C)[C@H](NC(=O)[C@H](C)NC(=O)CNC(=O)[C@H](Cc1ccccc1)NC(=O)[C@H](CC(N)=O)NC(=O)[C@@H]1CCCN1C(=O)[C@H](CO)NC(=O)[C@H](CO)NC(=O)[C@H](Cc1c[nH]cn1)NC(=O)[C@H](CCCNC(=N)N)NC(=O)[C@H](CC(C)C)NC(=O)[C@H](Cc1ccccc1)NC(=O)[C@H](CCC(=O)O)NC(=O)[C@H](C)NC(=O)[C@H](CC(C)C)NC(=O)[C@H](CCCNC(=N)N)NC(=O)[C@H](CCC(N)=O)NC(=O)[C@@H](NC(=O)[C@H](C)NC(=O)[C@@H]1CSSC[C@H](NC(=O)[C@@H](N)CCCCNC(=O)CC[C@H](NC(=O)CC[C@H](NC(=O)CCCCCCCCCCCCCCCCCCC(=O)O)C(=O)O)C(=O)O)C(=O)N[C@@H](CC(N)=O)C(=O)N[C@@H]([C@@H](C)O)C(=O)N[C@@H](C)C(=O)N[C@@H]([C@@H](C)O)C(=O)N1)[C@@H](C)O)C(=O)N1CCC[C@H]1C(=O)N[C@@H](CO)C(=O)N[C@@H](CO)C(=O)N[C@H](C(=O)N[C@@H](CC(N)=O)C(=O)N[C@H](C(=O)NCC(=O)N[C@@H](CO)C(=O)N[C@@H](CCCNC(=N)N)C(=O)N[C@H](C(=O)N[C@@H](Cc1ccc(O)cc1)C(N)=O)[C@@H](C)O)C(C)C)[C@@H](C)O [Example 89] (H-K([γGlu-γGlu-C20 diacid])CNTATCATQRLAEFLRHSSPNFGAIPSSTNVGSRTY-NH2; disulfide 2-7 (inferred); N-terminus assumed)	0.115	46	37	≥ 200	162 (≈ 738 µg/mL)	≥ 200	172 (≈ 786 µg/mL)	149 (≈ 681 µg/mL)	≥ 200	≥ 200	≥ 200
